In patent US7612065B2, “Inhibitors of c-JUN N-terminal kinases (JNK)” (priority 2007, dated 2009):

Biological target: T1, JNK3 (Homo sapiens, UniProt P53779)
T1 construct: One such construct encodes amino acid residues Ser40-Glu402 of JNK3α1 and is preceded by Met and Gly residues; Met-Gly (initiation methionine plus glycine added for the NcoI site); made in house; host or cells: E. coli BL21 (DE3)
Test: JNK inhibition assay: spectrophotometric coupled-enzyme assay with activated JNK3
Assay type: biochemical
Settings: activated JNK3 10 nM, 10 μM ATP, 200 μM EGF receptor peptide, 30° C., competitive inhibition model
Description: A BLAST search of the EST database using the published JNK3α1 cDNA as a query identified an EST clone (#632588) that contained the entire coding sequence for human JNK3α1. Polymerase chain reactions (PCR) using pfu polymerase (Strategene) were used to introduce restriction sites into the cDNA for cloning into the pET-15B expression vector at the NcoI and BamHI sites. The protein was expressed in E. coli. […] This truncation corresponds to Ser 2 of JNK1 and JNK2 proteins, and is preceded by a methionine (initiation) and a glycine residue. The glycine residue was added in order to introduce an NcoI site for cloning into the expression vector. In addition, systematic C-terminal truncations were performed by PCR to identify a construct that give rise to diffraction-quality crystals.
5 mg of JNK3 was diluted to 0.5 mg/ml in 50 mM HEPES buffer, pH 7.5, containing 100 mM NaCl, 5 mM DTT, 20 mM MgCl2 and 1 mM ATP. GST-MKK7(DD) was added at a molar ratio of 1:2.5 GST-MKK7:JNK3. After incubation for 30 minutes at 25° C., the reaction mixture was concentrated 5-fold by ultrafiltration in a Centriprep-30 (Amicon, Beverly, Mass.), diluted to 10 ml and an additional 1 mM ATP added. This procedure was repeated three times to remove ADP and replenish ATP. The final addition of ATP was 5 mM and the mixture incubated overnight at 4° C.
The activated JNK3/GST-MKK7(DD) reaction mixture was exchanged into 50 mM HEPES buffer, pH 7.5, containing 5 mM DTT and 5% glycerol (w/v) by dialysis or ultrafiltration. The reaction mixture was adjusted to 1.1 M potassium phosphate, pH 7.5, and purified by hydrophobic interaction chromatography (at 25° C.) using a Rainin Hydropore column. […] Activated JNK3 (i.e. doubly phosphorylated JNK3) was stored at −70° C. at 0.25-1 mg/ml.
Compounds were assayed for the inhibition of JNK3 by a spectrophotometric coupled-enzyme assay. In this assay, a fixed concentration of activated JNK3 (10 nM) was incubated with various concentrations of a potential inhibitor dissolved in DMSO for 10 minutes at 30° C. in a buffer containing 0.1 M HEPES buffer, pH 7.5, containing 10 mM MgCl2, 2.5 mM phosphoenolpyruvate, 200 μM NADH, 150 μg/mL pyruvate kinase, 50 μg/mL lactate dehydrogenase, and 200 μM EGF receptor peptide. […] The reaction was initiated by the addition of 10 μM ATP and the assay plate is inserted into the spectrophotometer's assay plate compartment that was maintained at 30° C. The decrease of absorbance at 340 nm was monitored as a function of time. The rate data as a function of inhibitor concentration was fitted to competitive inhibition kinetic model to determine the Ki.

T1 sequence (P53779 40-402): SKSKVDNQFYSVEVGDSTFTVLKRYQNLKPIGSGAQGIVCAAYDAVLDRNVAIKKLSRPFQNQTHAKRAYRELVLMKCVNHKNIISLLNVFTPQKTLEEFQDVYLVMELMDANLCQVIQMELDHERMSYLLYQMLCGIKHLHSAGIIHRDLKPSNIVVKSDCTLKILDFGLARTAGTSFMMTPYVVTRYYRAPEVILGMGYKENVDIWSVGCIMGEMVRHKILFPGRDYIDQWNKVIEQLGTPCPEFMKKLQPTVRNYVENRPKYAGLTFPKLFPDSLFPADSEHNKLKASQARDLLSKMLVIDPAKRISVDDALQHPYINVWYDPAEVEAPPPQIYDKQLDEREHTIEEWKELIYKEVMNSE

| SMILES | Ki |
| --- | --- |
| O=C1/C(=N\O)c2c(-c3ccsc3)cccc2N1Cc1cc(F)cc2c1OCOC2 [Compound 205] | ≥ 1000 nM |
| O=C1/C(=N\O)c2c(-c3cc4ccccc4o3)cccc2N1Cc1cc(F)cc2c1OCOC2 [Compound 206] | ≥ 1000 nM |
| O=C1/C(=N\O)c2ccc([N+](=O)[O-])cc2N1Cc1cc(F)cc2c1OCOC2 [Compound 207] | < 1000 nM |
| Nc1ccc2c(c1)N(Cc1cc(F)cc3c1OCOC3)C(=O)/C2=N\O [Compound 208] | < 1000 nM |
| CC(=O)Nc1ccc2c(c1)N(Cc1cc(F)cc3c1OCOC3)C(=O)/C2=N\O [Compound 210] | < 1000 nM |
| N#Cc1cccc2c1/C(=N/O)C(=O)N2Cc1cc(F)cc2c1OCOC2 [Compound 212] | ≥ 1000 nM |
| Cc1cc2c(c(CN3C(=O)/C(=N\O)c4ccc(C(=O)O)cc43)c1)OCOC2 [Compound 216] | < 1000 nM |
| O=C(Nc1ccc2c(c1)N(Cc1cc(F)cc3c1OCOC3)C(=O)/C2=N\O)c1csc(C2COc3ccccc3O2)n1 (stereo not drawn) [Compound 222] | ≥ 1000 nM |
| CCCC(=O)Nc1ccc2c(c1)N(Cc1cc(F)cc3c1OCOC3)C(=O)/C2=N\O [Compound 224] | < 1000 nM |
| O=C(Nc1ccc2c(c1)N(Cc1cc(F)cc3c1OCOC3)C(=O)/C2=N\O)C1CCCC1 [Compound 225] | < 1000 nM |
| O=C(Nc1ccc2c(c1)N(Cc1cc(F)cc3c1OCOC3)C(=O)/C2=N\O)c1ccco1 [Compound 226] | < 1000 nM |
| COc1ccccc1CNC(=O)c1ccc2c(c1)N(Cc1cc(F)cc3c1OCOC3)C(=O)/C2=N\O [Compound 231] | ≥ 1000 nM |
| COc1ccc(CCNC(=O)c2ccc3c(c2)N(Cc2cc(F)cc4c2OCOC4)C(=O)/C3=N\O)cc1OC [Compound 232] | ≥ 1000 nM |
| Cc1ccccc1CNC(=O)c1ccc2c(c1)N(Cc1cc(F)cc3c1OCOC3)C(=O)/C2=N\O [Compound 233] | ≥ 1000 nM |
| O=C(NCc1cccc(Cl)c1)c1ccc2c(c1)N(Cc1cc(F)cc3c1OCOC3)C(=O)/C2=N\O [Compound 234] | ≥ 1000 nM |
| O=C(NCc1cc(Cl)ccc1Cl)c1ccc2c(c1)N(Cc1cc(F)cc3c1OCOC3)C(=O)/C2=N\O [Compound 236] | ≥ 1000 nM |

| SMILES | Ki |
| --- | --- |
| O=C(NCc1cccnc1)c1ccc2c(c1)N(Cc1cc(F)cc3c1OCOC3)C(=O)/C2=N\O [Compound 237] | ≥ 1000 nM |
| O=C(NCCc1ccccn1)c1ccc2c(c1)N(Cc1cc(F)cc3c1OCOC3)C(=O)/C2=N\O [Compound 239] | ≥ 1000 nM |
| CC(C)(C)NC(=O)c1ccc2c(c1)N(Cc1cc(F)cc3c1OCOC3)C(=O)/C2=N\O [Compound 241] | ≥ 1000 nM |
| O=C1/C(=N\O)c2c(C#Cc3ccccc3)cccc2N1Cc1cc(F)cc2c1OCOC2 [Compound 246] | ≥ 1000 nM |
| O=C(Nc1ccc2c(c1)N(Cc1cc(F)cc3c1OCOC3)C(=O)/C2=N\O)c1ccc(F)cc1 [Compound 248] | < 1000 nM |
| O=C(Nc1ccc2c(c1)N(Cc1cc(F)cc3c1OCOC3)C(=O)/C2=N\O)c1ccc(F)cc1F [Compound 249] | < 1000 nM |
| COc1cccc(C(=O)Nc2ccc3c(c2)N(Cc2cc(F)cc4c2OCOC4)C(=O)/C3=N\O)c1 [Compound 250] | < 1000 nM |
| O=C(Nc1ccc2c(c1)N(Cc1cc(F)cc3c1OCOC3)C(=O)/C2=N\O)c1cccc(Cl)c1Cl [Compound 251] | < 1000 nM |
| O=C(Nc1ccc2c(c1)N(Cc1cc(F)cc3c1OCOC3)C(=O)/C2=N\O)c1ccc(Cl)cc1Cl [Compound 252] | ≥ 1000 nM |
| O=C(Nc1ccc2c(c1)N(Cc1cc(F)cc3c1OCOC3)C(=O)/C2=N\O)c1ccc(Cl)c(Cl)c1 [Compound 253] | ≥ 1000 nM |
| O=C(Nc1ccc2c(c1)N(Cc1cc(F)cc3c1OCOC3)C(=O)/C2=N\O)c1cccnc1 [Compound 254] | < 1000 nM |
| O=C(Nc1ccc2c(c1)N(Cc1cc(F)cc3c1OCOC3)C(=O)/C2=N\O)c1cccc(Cl)c1 [Compound 255] | < 1000 nM |
| CCOC(=O)C(=O)Nc1ccc2c(c1)N(Cc1cc(F)cc3c1OCOC3)C(=O)/C2=N\O [Compound 258] | < 1000 nM |
| COC(=O)CC(=O)Nc1ccc2c(c1)N(Cc1cc(F)cc3c1OCOC3)C(=O)/C2=N\O [Compound 259] | < 1000 nM |
| CS(=O)(=O)Nc1ccc2c(c1)N(Cc1cc(F)cc3c1OCOC3)C(=O)/C2=N\O [Compound 262] | < 1000 nM |
| COc1ccc(S(=O)(=O)Nc2ccc3c(c2)N(Cc2cc(F)cc4c2OCOC4)C(=O)/C3=N\O)cc1 [Compound 265] | ≥ 1000 nM |

The next lines start with the values.

| Ki | SMILES |
| --- | --- |
| < 1000 nM | O=C1/C(=N\O)c2ccc(NO)cc2N1Cc1cc(F)cc2c1OCOC2 [Compound 209] |
| ≥ 1000 nM | O=C1/C(=N\O)c2ccc(NS(=O)(=O)c3ccc(Cl)cc3)cc2N1Cc1cc(F)cc2c1OCOC2 [Compound 213] |
| < 1000 nM | COCC(=O)Nc1ccc2c(c1)N(Cc1cc(F)cc3c1OCOC3)C(=O)/C2=N\O [Compound 214] |
| < 1000 nM | COC(=O)c1ccc2c(c1)N(Cc1cc(C)cc3c1OCOC3)C(=O)/C2=N\O [Compound 215] |
| < 1000 nM | N#CCC(=O)Nc1ccc2c(c1)N(Cc1cc(F)cc3c1OCOC3)C(=O)/C2=N\O [Compound 217] |
| ≥ 1000 nM | O=C(Nc1ccc2c(c1)N(Cc1cc(F)cc3c1OCOC3)C(=O)/C2=N\O)c1cc(=O)c2ccccc2o1 [Compound 218] |
| < 1000 nM | O=C(Cc1cccs1)Nc1ccc2c(c1)N(Cc1cc(F)cc3c1OCOC3)C(=O)/C2=N\O [Compound 219] |
| < 1000 nM | O=C(Cc1ccccc1F)Nc1ccc2c(c1)N(Cc1cc(F)cc3c1OCOC3)C(=O)/C2=N\O [Compound 220] |
| < 1000 nM | O=C(Nc1ccc2c(c1)N(Cc1cc(F)cc3c1OCOC3)C(=O)/C2=N\O)c1cc2ccccc2o1 [Compound 221] |
| ≥ 1000 nM | CN(C)CC(=O)Nc1ccc2c(c1)N(Cc1cc(F)cc3c1OCOC3)C(=O)/C2=N\O [Compound 223] |
| < 1000 nM | O=C(NCc1ccc(F)cc1)c1ccc2c(c1)N(Cc1cc(F)cc3c1OCOC3)C(=O)/C2=N\O [Compound 227] |
| ≥ 1000 nM | O=C(c1ccc2c(c1)N(Cc1cc(F)cc3c1OCOC3)C(=O)/C2=N\O)N1CCOCC1 [Compound 228] |
| ≥ 1000 nM | O=C(Nc1cccc(F)c1)c1ccc2c(c1)N(Cc1cc(F)cc3c1OCOC3)C(=O)/C2=N\O [Compound 229] |
| ≥ 1000 nM | COc1cc(CNC(=O)c2ccc3c(c2)N(Cc2cc(F)cc4c2OCOC4)C(=O)/C3=N\O)cc(OC)c1 [Compound 230] |
| ≥ 1000 nM | O=C(NCc1ccncc1)c1ccc2c(c1)N(Cc1cc(F)cc3c1OCOC3)C(=O)/C2=N\O [Compound 238] |
| ≥ 1000 nM | O=C(NCCN1CCOCC1)c1ccc2c(c1)N(Cc1cc(F)cc3c1OCOC3)C(=O)/C2=N\O [Compound 240] |
| ≥ 1000 nM | CCN(Cc1ccccc1)C(=O)c1ccc2c(c1)N(Cc1cc(F)cc3c1OCOC3)C(=O)/C2=N\O [Compound 242] |
| ≥ 1000 nM | CCC(NC(=O)c1ccc2c(c1)N(Cc1cc(F)cc3c1OCOC3)C(=O)/C2=N\O)c1ccccc1 (stereo not drawn) [Compound 243] |
| ≥ 1000 nM | COC(=O)c1cccc2c1/C(=N/O)C(=O)N2Cc1cc(F)cc2c1OCOC2 [Compound 244] |
| ≥ 1000 nM | O=C(O)c1cccc2c1/C(=N/O)C(=O)N2Cc1cc(F)cc2c1OCOC2 [Compound 245] |
| < 1000 nM | O=C(Nc1ccc2c(c1)N(Cc1cc(F)cc3c1OCOC3)C(=O)/C2=N\O)c1ccccc1 [Compound 247] |
| < 1000 nM | COc1ccccc1C(=O)Nc1ccc2c(c1)N(Cc1cc(F)cc3c1OCOC3)C(=O)/C2=N\O [Compound 256] |
| ≥ 1000 nM | O=C(Nc1ccc2c(c1)N(Cc1cc(F)cc3c1OCOC3)C(=O)/C2=N\O)N1CCOCC1 [Compound 257] |
| < 1000 nM | O=C(Nc1ccc2c(c1)N(Cc1cc(F)cc3c1OCOC3)C(=O)/C2=N\O)c1ccc([N+](=O)[O-])cc1 [Compound 260] |
| < 1000 nM | CC(C)C(=O)Nc1ccc2c(c1)N(Cc1cc(F)cc3c1OCOC3)C(=O)/C2=N\O [Compound 261] |
| < 1000 nM | CCS(=O)(=O)Nc1ccc2c(c1)N(Cc1cc(F)cc3c1OCOC3)C(=O)/C2=N\O [Compound 263] |
| ≥ 1000 nM | CC(C)S(=O)(=O)Nc1ccc2c(c1)N(Cc1cc(F)cc3c1OCOC3)C(=O)/C2=N\O [Compound 264] |
| < 1000 nM | Cc1ccccc1C(=O)c1ccc2c(c1)/C(=N\O)C(=O)N2Cc1cc(F)cc2c1OCOC2 [Compound 268] |
